In PMC10997755, “Discovery of a small-molecule inhibitor that traps Polθ on DNA and synergizes with PARP inhibitors” (Nature Communications, 2024):
Values joined by “and” are separate entries in the source; they are usually repeats but may differ in a detail not shown here. Equal entries are not always repeated.

Tests used:
DLD1 BRCA2 -/- cells = experiment: Apoptosis assay (FITC active caspase-3); assay type: cell-based; parameters: FITC+ AVG / FITC- AVG: unit not given here; conditions: for % population FITC Caspase-3 Negative / % population FITC Caspase-3 Positive: bar matched by sums to 100; for FITC+ AVG / FITC- AVG: DLD1 BRCA2 null
Procedure: DLD1 BRCA2 -/-, DLD1 Parental cells were plated on six well plates and treated with RTX-161 1 day after plating. Medium was replaced every 2 days with RTX-161. Cells were harvested 6 days after plating for apoptosis assay using FITC active caspase-3 apoptosis kit (BD biosciences, catalog # 550480) according to manufacturer’s instructions and analyzed by FACS with Celesta (Becton Dickinson).

Polθ-pol on DNA/DNA = biological target: T1, Polθ-pol on DNA/DNA (Homo sapiens, UniProt O75417); experiment: Relative rate of ddCMP addition on DNA/DNA; assay type: biochemical; conditions: for Average % Extension (Single nt) / % Extension (Single nt): DNA template, 2uM RTX-161; for Average % Extension (Single nt): average of 3 trials; for % Extension (Single nt): single trials 1-3
T1 construct: purified recombinant human Polθ-pol (comprising amino acid residues 1792–2590); made in house
T1 sequence (O75417 1792-2590): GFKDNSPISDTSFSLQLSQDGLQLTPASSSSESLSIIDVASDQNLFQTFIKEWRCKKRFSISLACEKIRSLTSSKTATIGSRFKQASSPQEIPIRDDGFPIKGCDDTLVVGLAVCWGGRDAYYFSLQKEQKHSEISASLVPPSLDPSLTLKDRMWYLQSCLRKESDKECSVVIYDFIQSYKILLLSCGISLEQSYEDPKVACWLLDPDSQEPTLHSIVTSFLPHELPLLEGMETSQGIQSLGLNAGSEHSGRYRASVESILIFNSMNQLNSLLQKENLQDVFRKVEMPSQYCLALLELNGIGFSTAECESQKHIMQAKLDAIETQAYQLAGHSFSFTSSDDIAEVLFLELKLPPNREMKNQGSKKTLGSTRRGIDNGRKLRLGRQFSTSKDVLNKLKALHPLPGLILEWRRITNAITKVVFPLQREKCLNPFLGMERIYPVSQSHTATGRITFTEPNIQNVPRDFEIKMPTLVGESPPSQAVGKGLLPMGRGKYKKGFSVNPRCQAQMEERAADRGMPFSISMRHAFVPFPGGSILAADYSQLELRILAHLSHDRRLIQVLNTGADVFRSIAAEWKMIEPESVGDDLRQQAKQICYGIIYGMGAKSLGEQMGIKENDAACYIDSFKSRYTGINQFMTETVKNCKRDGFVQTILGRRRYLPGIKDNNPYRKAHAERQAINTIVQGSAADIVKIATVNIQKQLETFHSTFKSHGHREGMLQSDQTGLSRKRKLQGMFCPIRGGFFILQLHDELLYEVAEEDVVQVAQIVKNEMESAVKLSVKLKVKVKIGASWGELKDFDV
Procedure: Relative rate of Polθ-pol dAMP addition. The relative rates of dAMP incorporation by Polq-pol in the presence of DMSO or MC160385 with various concentrations of dATP were measured using the following primer extension assay in vitro. 2 nM or Polθ-pol was incubated with 5’ ^32P-γ-ATP labeled 100 nM primer-template (RP469D/RP486) in 1X buffer (25 mM TrisHCl pH 7.8, 0.01% NP40, 10% glycerol, 1 mM DTT, 10 mM MgCl2, 0.1 mg/ml BSA) at room temp. 2.5% DMSO, 7.5 nM or 12 nM of MC160385 was added. Reactions were than initiated by the addition of 20, 50, 100, 200, or 300 μM dATP at room temp. Aliquots of the reactions were removed and terminated by the addition of 50 mM EDTA at 3, 3.5, 4 and 5 min after the reaction was initiated. Radio-labeled DNA was then resolved via denaturing 20% PAGE and visualized by Typhoon PhosphorImager (GE Amersham). Rates of dAMP incorporation were calculated from % extension of the prime-template which was determined using ImageJ software. Relative rate of ddCMP addition on DNA/DNA and DNA/RNA. 25 nM nucleic acid DNA/DNA or DNA/RNA primer-template (RP559/RP702 or RP559/RP702R) was mixed with 1X reaction buffer (20 mM TrisHCl pH 7.5, 0.01% NP-40, 0.5 mM DTT, 10% glycerol, 0.1 mg/ml BSA, 10 mM MgCl2) in the presence of 250 μM ddCTP at room temp. Next, 2 μM RTx-161 or 2.5% DMSO was added. Reactions were initiated by the addition of 10 nM Polθ-pol. Reaction aliquots were removed and terminated by the addition of 50 mM EDTA at the indicated time points. Radio-labeled DNA was then resolved via denaturing 20% PAGE and visualized by Typhoon PhosphorImager. Percent primer extension by single ddCMP addition at each time point was calculated from % extension of the prime-template which was determined using ImageJ software.

CN(C(=O)Oc1c(N2CCN(CCO)C2=O)cc(C(F)(F)F)cc1C(F)(F)F)c1ccc(F)cc1 [RTx-161]
% population FITC Caspase-3 Negative (DLD1 BRCA2 -/- cells; 10 uM RTX-161): 92%
% population FITC Caspase-3 Positive (DLD1 BRCA2 -/- cells; 10 uM RTX-161): 8%
% population FITC Caspase-3 Negative (DLD1 BRCA2 -/- cells; 20 uM RTX-161): 90%
% population FITC Caspase-3 Positive (DLD1 BRCA2 -/- cells; 20 uM RTX-161): 10%
FITC+ AVG (DLD1 BRCA2 -/- cells; 10 uM, left block of sheet): 8.433
FITC- AVG (DLD1 BRCA2 -/- cells; 10 uM, left block of sheet): 91.5667
FITC+ AVG (DLD1 BRCA2 -/- cells; 10 uM, middle block of sheet): 12.1
FITC- AVG (DLD1 BRCA2 -/- cells; 10 uM, middle block of sheet): 87.9
FITC+ AVG (DLD1 BRCA2 -/- cells; 10 uM, right block of sheet): 12.3333
FITC- AVG (DLD1 BRCA2 -/- cells; 10 uM, right block of sheet): 87.6667
FITC+ AVG (DLD1 BRCA2 -/- cells; 20 uM, left block of sheet): 9.633
FITC- AVG (DLD1 BRCA2 -/- cells; 20 uM, left block of sheet): 90.3667
FITC+ AVG (DLD1 BRCA2 -/- cells; 20 uM, middle block of sheet): 13.8333
FITC- AVG (DLD1 BRCA2 -/- cells; 20 uM, middle block of sheet): 86.1667
FITC+ AVG (DLD1 BRCA2 -/- cells; 20 uM, right block of sheet): 13.3333
FITC- AVG (DLD1 BRCA2 -/- cells; 20 uM, right block of sheet): 86.6667
apoptosis (DLD1 BRCA2 -/- cells; versus parental): selectively induced PARP cleavage and apoptosis
inhibition of single nucleotide incorporation on DNA/DNA (Polθ-pol on DNA/DNA; 2 μM RTx-161, closed conformation): significant inhibition
Average % Extension (Single nt) (Polθ-pol on DNA/DNA; Time 0): 0.00%
% Extension (Single nt) (Polθ-pol on DNA/DNA; Time 0): 0.00%
Average % Extension (Single nt) (Polθ-pol on DNA/DNA; Time 0.5): 11.29%
% Extension (Single nt) (Polθ-pol on DNA/DNA; Time 0.5): 12.34% and 11.73% and 9.81%
Average % Extension (Single nt) (Polθ-pol on DNA/DNA; Time 1): 18.42%
% Extension (Single nt) (Polθ-pol on DNA/DNA; Time 1): 20.67% and 19.99% and 14.59%
Average % Extension (Single nt) (Polθ-pol on DNA/DNA; Time 2): 25.83%
% Extension (Single nt) (Polθ-pol on DNA/DNA; Time 2): 27.74% and 29.45% and 20.29%
